Source: PubChem BioAssay AID330 (DTP/NCI, 2004)
Values joined by “and” are separate entries in the source; they are usually repeats but may differ in a detail not shown here. Equal values may be shown once. Toxic doses and inconclusive results are not listed. The calls were made as follows: active = survival T/C of 150% or more; inactive = T/C below 125% in these data.

Tested on: P388 leukemia ip, CD2F1 mice, survival T/C
Experiment: NCI In Vivo Anticancer Drug Screen. Data for tumor model P388 Leukemia (intraperitoneal) in CD2F1 (CDF1) mice
Conditions: endpoint: median survival time, higher = longer survival
In short: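 Mice carrying the transplanted tumor received test compound or vehicle. Survival was recorded in each group, and the value is the treated-group measurement divided by that of the vehicle-treated control group.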

[1] = dose: 100.0 mg/kg/injection, schedule: Q04DX003 (ip), vehicle: Klucel (hydroxypropylcellulose) (HPC)
[2] = dose: 200.0 mg/kg/injection, schedule: Q04DX003 (ip), vehicle: Klucel (hydroxypropylcellulose) (HPC)
[3] = dose: 400.0 mg/kg/injection, schedule: Q04DX003 (ip), vehicle: Klucel (hydroxypropylcellulose) (HPC)
[4] = dose: 50.0 mg/kg/injection, schedule: Q01DX009 (ip), vehicle: saline
[5] = dose: 100.0 mg/kg/injection, schedule: Q01DX009 (ip), vehicle: saline
[6] = dose: 50.0 mg/kg/injection, schedule: Q01DX005 (ip), vehicle: saline with Tween-80
[7] = dose: 100.0 mg/kg/injection, schedule: Q01DX005 (ip), vehicle: saline with Tween-80
[8] = dose: 200.0 mg/kg/injection, schedule: Q01DX005 (ip), vehicle: saline with Tween-80
[9] = dose: 25.0 mg/kg/injection, schedule: Q01DX005 (ip), vehicle: Klucel (hydroxypropylcellulose) (HPC)
[10] = dose: 50.0 mg/kg/injection, schedule: Q01DX005 (ip), vehicle: Klucel (hydroxypropylcellulose) (HPC)
[11] = dose: 100.0 mg/kg/injection, schedule: Q01DX005 (ip), vehicle: Klucel (hydroxypropylcellulose) (HPC)
[12] = dose: 200.0 mg/kg/injection, schedule: Q01DX009 (ip), vehicle: saline
[13] = dose: 6.25 mg/kg/injection, schedule: Q01DX009 (ip), vehicle: saline with Tween-80
[14] = dose: 12.5 mg/kg/injection, schedule: Q01DX009 (ip), vehicle: saline with Tween-80

Measured: T/C

CCCC[S][Sn]([CH2]CCC)([CH2]CCC)[S]CCCC
inactive: dose: 0.75 mg/kg/injection, schedule: Q01DX009 (ip), vehicle: saline with Tween-80 121 % of control
active: dose: 3.0 mg/kg/injection, schedule: Q01DX009 (ip), vehicle: saline with Tween-80 152 % of control

O=C(c1ccccc1)C(c1ccccc1)C(Cl)c1ccccc1 (stereo not given)
inactive: dose: 50.0 mg/kg/injection, schedule: Q01DX009 (ip), vehicle: Klucel (hydroxypropylcellulose) (HPC) 100 % of control | dose: 100.0 mg/kg/injection, schedule: Q01DX009 (ip), vehicle: Klucel (hydroxypropylcellulose) (HPC) 97 % of control | [1] 98 % of control | dose: 200.0 mg/kg/injection, schedule: Q01DX009 (ip), vehicle: Klucel (hydroxypropylcellulose) (HPC) 99 % of control | [2] 100 % of control | [3] 100 % of control

COc1cc2c(cc1OC)C(CN)C2 (stereo not given)
inactive: dose: 25.0 mg/kg/injection, schedule: Q01DX009 (ip), vehicle: saline 111 % of control | [4] 109 % of control | [5] 119 % of control

COC1CCCCC1C(=O)C(C#N)C1CCCCC1C1CCCCC1 (stereo not given)
inactive: [6] 100 % of control | [7] 98 % of control | [8] 96 % of control

COCc1cccnc1
inactive: [9] 97 % of control | [10] 93 % of control | [11] 88 % of control

CCOC(=O)Nc1ccc2nc(-c3cscn3)[nH]c2c1
inactive: [4] 101 % of control | [5] 112 % of control | [12] 115 % of control

COc1ccc(CCNC2Oc3ccc([N+](=O)[O-])cc3-c3nc(C)c(C#N)cc32)cc1OC (stereo not given)
inactive: dose: 15.0 mg/kg/injection, schedule: Q01DX005 (ip), vehicle: saline with Tween-80 98 % of control | dose: 30.0 mg/kg/injection, schedule: Q01DX005 (ip), vehicle: saline with Tween-80 98 % of control | dose: 60.0 mg/kg/injection, schedule: Q01DX005 (ip), vehicle: saline with Tween-80 91 % of control and 92 % of control

O=[N+]([O-])c1ccc(C=C2C(Cl)=C(Cl)C(Cl)=C2Cl)cc1
inactive: [13] 91 % of control | [14] 100 % of control

N=C(N)n1c(N)nc2ccccc2c1=O
inactive: dose: 12.0 mg/kg/injection, schedule: Q01DX005 (ip), vehicle: Klucel (hydroxypropylcellulose) (HPC) 108 % of control | dose: 12.5 mg/kg/injection, schedule: Q01DX005 (ip), vehicle: saline with Tween-80 100 % of control | [9] 101 % of control | dose: 25.0 mg/kg/injection, schedule: Q01DX005 (ip), vehicle: saline with Tween-80 104 % of control | [10] 121 % of control | [6] 97 % of control

O=C(Cc1nc2ccccc2[nH]1)NNC(=S)NC1CCCCC1
inactive: [10] 87 % of control | [11] 88 % of control

CCOC(=O)/C=C(\Br)C(=O)OCC
inactive: dose: 3.15 mg/kg/injection, schedule: Q01DX009 (ip), vehicle: saline with Tween-80 108 % of control | [13] 99 % of control | [14] 119 % of control

C=CC(=O)OCCCCCCCCCC
inactive: [1] 101 % of control | [2] 109 % of control | [3] 108 % of control

CCn1c2ccc([N+](=O)[O-])cc2c2c([N+](=O)[O-])c(-n3cccc3)ccc21
inactive: [6] 95 % of control | [7] 90 % of control | [8] 88 % of control

C=C1SC(=Nc2cccc(OC)c2)N(c2nc(Cl)nc(Cl)n2)C12CCCCC2
inactive: [4] 100 % of control | [5] 101 % of control | [12] 100 % of control
